From patent US8916516B2, “Treatment of fungal and/or protist infections” (AI2 Limited, priority 2005, dated 2014)
No end group written: not given here.

Assays:
Type in all cases: cell-based
[1] = tested on: Fusarium solani 4 (FS4); experiment: Antifungal MIC (Example 4); conditions: Fusarium solani 4; peptides; Tables 4 and 5
Method: (§1) The inventor expanded the work conducted in Example 1 by testing an expanded library of peptides derived from either apolipoprotein B or apolipoprotein E in order to further evaluate polypeptides in accordance with the invention. These experiments were conducted using the following fungal species:
(§2) FS1-FS4 were obtained from Bristol PHLS (British Public Health Laboratory Service UK). Aspergillus fumigatus 293 is publicly available as culture collection strain NCPF7367 (National Collection of Pathogenic Fungi Public Health Laboratory, Mycological Reference Laboratory Myrtle Road, Kingsdown, Bristol BS2 8EL) The Candida albicans was a clinical isolate obtained by standard means.
(§3) The methods used to determine, the IC50 values for each peptide were as described in the Example 1.

[2] = tested on: Fusarium solani 1 (FS1); experiment: Antifungal MIC (Example 4); conditions: Fusarium solani 1; peptides; Tables 4 and 5
Method: as §1, §2, §3

[3] = tested on: Fusarium solani 2 (FS2); experiment: Antifungal MIC (Example 4); conditions: Fusarium solani 2; peptides; Tables 4 and 5
Method: as §1, §2, §3

[4] = tested on: Fusarium solani 3 (FS3); experiment: Antifungal MIC (Example 4); conditions: Fusarium solani 3; peptides; Tables 4 and 5
Method: as §1, §2, §3

[5] = tested on: Aspergillus fumigatus AF293 (NCPF7367); experiment: microbe, parasite or virus in culture; conditions: Aspergillus fumigatus 293; peptides; Tables 4 and 5
Method: (§4) Four compounds were supplied as an aqueous solution, 400 μM. Serial dilutions of each test peptide were prepared in addition to a control, which was a conventional antifungal drug, Amphoteracin B. Amphteracin B is obtained from Invitrogen or Melford laboratories.
(§5) Initial testing of the peptides was carried out against the following organisms: • 1) Aspergillus fumigatus AF293 (culture collection strain NCPF7367) • 2) Candida albicans 6862 (clinical isolate) • 3) Fusarium spp 5889 (clinical isolate) • 4) Fusarium spp 6507 (clinical isolate) • 5) Aspergillus terreus (clinical isolate) • 6) Aspergillus niger (clinical isolate) • 7) Staphylococcus aureus (Oxford strain, which is a standard reference strain used in MIC testing)
The bacterium S. aureus was tested with each of the peptides as a control. A suspension of each organism in an appropriate growth medium was added to the, dilutions of the peptides in order to give concentration ranges of 40 μM to 0.04 μM for each of the peptides, and 64-0.025 μg/ml for amphotericin B. Fungal strains were tested in RPMI media. RPMI is standard Roswell Park Memorial Institute medium (Morton, H. C., (1970) A survey of Commercially Available Tissue Culture Media. In Vitro 6: 89-108).
The final inoculum for S. aureus was 5×10^4 cfu/ml. The final inoculum for C. albicans was 2×10^3 cfu/ml. The final inoculum for Aspergillus fumigatus and for Fusarium spp was 2×10^4 cfu/ml.
(§6) Candida and S. aureus plates were read after 24 hrs incubation and the Aspergillus and Fusarium strains read after 48 hrs. The MIC was taken as the lowest drug or compound concentration that caused >80% reduction in growth compared with a drug free control.
Aspergillus fumigatus 293 (AF); and
as §2, with “means. […]” for “means.”

[6] = tested on: Candida albicans (CA), clinical isolate; experiment: Antifungal MIC (Example 4); conditions: peptides, Tables 4 and 5
Method: as §1, §2, §3

[7] = tested on: fungi; conditions: overall statement on the fungi tested
Method: as §4, §5
The bacterium S. aureus was tested with each of the peptides as a control. […] RPMI is standard Roswell Park Memorial Institute medium (Morton, H. C., (1970) A survey of Commercially Available Tissue Culture Media. In Vitro 6: 89-108).
as §6, §3

Substance | MIC values (>80% reduction) FS4 [1] | MIC values (>80% reduction) FS1 [2] | MIC values (>80% reduction) FS2 [3] | MIC values (>80% reduction) FS3 [4] | MIC values (>80% reduction) AF [5] | MIC values (>80% reduction) CA [6] | antifungal activity (in words) [7]
ERKERKREEERKERKREE (Artificial polypeptide designated MU 1) [MU_1, 76] | >40 µM | >40 µM | >40 µM | >40 µM | >40 µM | >40 µM | 
modified apoB3359-3367: SEQ ID No. 7; modified form of the apoB3359-3367 9-mer, sequence shown only in Table 1 drawing (LRTRKRGRK; not fully specified) [reference compound] |  |  |  |  |  |  | no detectable antifungal activity
VRKVRKRVVVRKVRKRVV (Artificial polypeptide designated MU 14) [MU_14, 82] | >40 µM | >40 µM | >40 µM | >40 µM | >40 µM | >40 µM | 
RRWRKRWRKWRWRKRWRK (Artificial polypeptide designated MU 28) [MU_28, 42] | 2.5 µM | 0.6 µM | 0.6 µM | 1.25 µM | 10 µM | >40 µM | good antifungal activity
YRKYRKRYYYRKYRKRYY (Artificial polypeptide designated GIN 41 or MU6) [MU_6] | 20 µM | 10 µM | 5 µM | 5 µM | >40 µM | >40 µM | particularly effective antifungal peptides
TRKTRKRTTTRKTRKRTT (Artificial polypeptide designated MU 15) [MU_15, 83] | >40 µM | >40 µM | >40 µM | >40 µM | >40 µM | >40 µM | 
GRKGRKRGGGRKGRKRGG (Artificial polypeptide designated MU 17) [MU_17, 84] | >40 µM | >40 µM | >40 µM | >40 µM | >40 µM | >40 µM | 
LRKLRKRLLLRKLRKRWW (Artificial polypeptide designated MU 112) [MU_112, 24] | 5 µM | 2.5 µM | 2.5 µM | 2.5 µM | >40 µM | >40 µM | 
ARKARKRAAARKARKRAA (Artificial polypeptide designated MU 2) [MU_2, 77] | >40 µM | >40 µM | >40 µM | >40 µM | >40 µM | >40 µM | 
LRKLRKRLLRLRKLRKRLLR (Artificial polypeptide designated MU 82) [MU_82, 21] | 10 µM | 2.5 µM | 2.5 µM | 2.5 µM | >40 µM | >40 µM | 
MRKMRKRMMMRKMRKRMM (Artificial polypeptide designated MU 16) [MU_5] | 40 µM | 10 µM | 20 µM | 20 µM | >40 µM | >40 µM | 
DRKDRKRDDDRKDRKRDD (Artificial polypeptide designated MU 3) [MU_3, 78] | >40 µM | >40 µM | >40 µM | >40 µM | >40 µM | >40 µM | 
HRKHRKRHHHRKHRKRHH (Artificial polypeptide designated MU 19) [MU_19] | 10 µM | 20 µM | >40 µM | 40 µM | >40 µM | >40 µM | 
WRKWRKRWWLRKLRKRLL (Artificial polypeptide designated GIN 34) | 12.5 µM | 1.25 µM | 0.6 µM | 1.25 µM | 40 µM | 10 µM | 
SRKSRKRSSSRKSRKRSS (Artificial polypeptide designated MU 13) [MU_13, 81] | >40 µM | >40 µM | >40 µM | >40 µM | >40 µM | >40 µM | 
LRKLRKRLL (listed as Homo sapiens) [apoE141-149, monomeric 9-mer of apolipoprotein E, reference compound] |  |  |  |  |  |  | no detectable antifungal activity
PRKPRKRPPPRKPRKRPP (Artificial polypeptide designated MU 20) [MU_20, 86] | >40 µM | >40 µM | >40 µM | >40 µM | >40 µM | >40 µM | 
RLTRKRGLK (listed as Homo sapiens) [apoB3359-3367, monomeric 9-mer of apolipoprotein B, reference compound] |  |  |  |  |  |  | no detectable antifungal activity
IRKIRKRIIIRKIRKRII (Artficial polypeptide designated MU 8) [MU_8] | 40 µM | 40 µM | 20 µM | 20 µM | >40 µM | >40 µM | 
QRKQRKRQQQRKQRKRQQ (Artificial polypeptide designated MU 9) [MU_9, 79] | >40 µM | >40 µM | >40 µM | >40 µM | >40 µM | >40 µM | 
NRKNRKRNNNRKNRKRNN (Artificial polypeptide designated MU 11) [MU_11, 80] | >40 µM | >40 µM | >40 µM | 40 µM | >40 µM | >40 µM | 
